Reference: US10272110B2, “Methods for promoting HSC engraftment” (CHILDREN'S MEDICAL CENTER CORPORATION, priority 2006, dated 2019)
Entries after “also recorded” stand apart in the source; their conditions may differ.

Experiments:
[1] = tested on: AGM HSCs; assay: Rescue of AGM HSCs in the mindbomb mutant; type: in vivo, zebrafish; settings: preliminary studies
Description: The mutant mindbomb lacks an E3 ubiquitin ligase for delta, the ligand of notch receptors. As such, mindbomb mutants completely lack notch signaling, and fail to make any hematopoietic stem cells in the AGM. Itoh et al., 4 Devel. Cell 67-82 (2003). Overexpression of runx1 rescues the number of c−myb positive cells in the AGM in mindbomb. This implies that runx is an important target of notch. […] This may be due to a defect in the ability of the cells to respond to prostaglandin E2; notch signaling is likely to be required earlier in the development of the AGM region than prostaglandin E2. Dose response curves with prostaglandin E2 in the mindbomb mutant may shed light on this. Conversely, Notch ICD embryos that have increased stem cell number by 36 hpf may be incubated with Cox inhibitors to see if prostaglandin signaling has a role in mediating AGM HSC upregulation. Other hematopoietic mutants may be studied similarly.

[2] = tested on: cmyb/lmo2+ HSCs; assay: Confocal quantification of HSCs in cmyb:GFP x lmo2:dsRed bigenic embryos; type: in vivo, zebrafish
Experimental: A long-acting derivative, 16,16-dimethyl-PGE2 (dmPGE2, 10 μM) caused an increase in runx1/cmyb+ AGM HSCs in 78% of embryos examined (97/124). AGM HSCs were inhibited by indomethacin (10 μM) treatment in 90% of embryos analyzed (92/102). […] Transgenic cmyb:GFP zebrafish with green fluorescent HSCs and myeloid progenitor cells were crossed to lmo2:dsRed fish that have red fluorescent endothelial cells and HSCs to visualize the effects of chemical exposure in vivo. […] FIG. 3.
Live 36 hpf treated bigenic zebrafish embryos were embedded in 1% low-melting point agarose containing 0.4 mg/ml Tricaine-S for confocal imaging. cmyb-GFP transgenic reporter lines were created from a BAC containing the cmyb promoter genomic sequence (Galloway, Zhu, Lin, Zon, unpublished); lmo2:DsRed fish were created as described^27. For HSC quantification, cmyb/lmo2+ positive cells were counted in projections of z-stack images (n=10/treatment).

[3] = tested on: kidney marrow (KM) hematopoietic lineages; assay: Kidney marrow irradiation recovery assay in adult zebrafish; settings: 50 μM vs DMSO, sublethally irradiated adult zebrafish
Description: Wild-type fish were sublethally irradiated, exposed to dmPGE2, and evaluated for kinetics of KM recovery by FACS 11 (FIG. 4A).
Adult zebrafish were exposed to 23 Gy of γ-irradiation. […] Whole KM isolated on days 0, 2, 4, 7, 10, 14 was subjected to FSC/SSC FACS analysis to identify hematopoietic lineages (n=5/treatment×3 replicates).

[4] = tested on: wnt activity; assay: wnt reporter TOP:dGFP zebrafish embryos; type: in vivo; settings: vs control
Description: Clinical experience in patients with APC mutations has shown that inhibition of prostaglandin synthesis results in decreased wnt mediated polyp formation. […] These interactions were examined in vivo using a wnt reporter zebrafish transgenic line, TOP:dGFP. At fifty-percent epiboly, embryos were subjected either to nothing (control), indomethacin, or PGE2, and the amount of wnt signaling activated in the embryo assessed by GFP induction driven from the wnt binding site. Analysis of alterations in GFP expression in the head was analyzed by in situ hybridization. […] FIG. 12.

[5] = tested on: mouse ES cells; assay: ES cell hematopoietic differentiation assays (M3434 methylcellulose and OP9 colony assays); type: cell-based
Experimental: ES cell hematopoietic differentiation assays were performed as previously described. […] M3434 methylcellulose colony forming and OP9 colony assays were conducted on day 6 and analyzed at […], respectively. Colony type was identified by morphological analysis; duplicate chemical exposures were averaged to determine the reported colony number (n=3 replicates minimum).

[6] = tested on: wnt activity; assay: wnt activity in kidney marrow of irradiated Top:dGFP adults; type: in vivo, zebrafish; settings: day three post irradiation
Experimental: To determine if prostaglandin pathway manipulation can alter wnt activity in the kidney marrow repopulation in the adult, the effects of dmPGE2 and indomethacan was examined further in Top:dGFP lines. […] FIG. 14. To discern whether modulation of prostaglandin signaling can modify the wnt mediated effects on kidney marrow recovery following irradiation, wnt genes were activated by heat shock at 38° C. at two days post irradiation and then. exposure to prostaglandin pathway drugs at one day post heat shock. The hs:wnt8-GFP fish were exposed to indomethacin, while the dkk1, axin, and dnTCF transgenic fish were exposed to dmPGE2. Whole kidney marrow was analyzed by FACS on day ten post-irradiation.

[7] = tested on: runx1, cmyb expression; assay: qPCR of HSC gene expression in treated zebrafish embryos; type: in vivo
[8] = tested on: runx1/cmyb+ AGM HSCs; assay: Heat shock wnt-pathway transgenic embryos treated with PG drugs: AGM HSC formation; type: in vivo, zebrafish
Experimental: More specifically, Wnt signaling through its main transcriptional mediator β-catenin plays an important role in controlling tissue patterning, cell fate decisions, and proliferation in many embryonic contexts, including the development and differentiation of organs. […] Whether wnt signaling has a role during HSC formation in zebrafish was determined using heat shock inducible activators and repressors of the wnt pathway. Briefly, wnt-inducible embryos were harvested and heat shocked for twenty minutes at 38° C. Genotypes were sorted by GFP expression, and the AGM HSCs analyzed by runx1/cmyb expression in situ. […] This is the first evidence in any organism that wnt signaling is required for AGM HSC formation.
Additionally, indomethacin and dmPGE2 was used to investigate the interaction of the wnt and prostaglandin pathways during HSC development and in marrow recovery following injury. FIG. 13 reflects the potential points of interaction of the PG and wnt pathways. […] Furthermore, dmPGE2 can rescue the inhibitory effects of dkk activation on AGM HSC formation at 36 hpf, as shown by in situ hybridization for runx1/cmyb.

[9] = tested on: peripheral blood and bone marrow WBC; assay: 5-Fluorouracil bone marrow injury; type: in vivo, mouse
Experimental: Mice were treated with 5-FU (150 mg/kg) as described. Venezia et al., 2004. […] Peripheral blood was obtained on day seven and day fourteen, quantified and subjected to multilineage FACS analysis using antibodies (eBioscience) to B220/IgM (B-lymphoid), CD4/8 (T-lymphoid), Mac1/Gr1 (myeloid), Ter119/CD71 (erythroid) and ckit/sca1 (stem/progenitor). Mice were sacrificed on day 16, and bone marrow was isolated, quantified and analyzed by FACS.

[10] = tested on: CFU-S from murine bone marrow cells; assay: Murine colony-forming units-spleen (CFU-S); type: in vivo, mouse
Experimental: Two independent BM samples were treated (n=5/treatment×2 replicates) for each variable. Recipient mice were lethally irradiated with a split dose of 10 Gy. 6×10^4 unfractionated dmPGE2 or control-treated BM cells were injected retro-orbitally into irradiated recipient mice. Spleens were dissected on day eight or twelve, weighed and fixed with Bouin's solution; hematopoietic colonies per spleen were counted. 1×10^5 cells/recipient were transplanted after treatment with the cox inhibitors. FACS sorted ckit^+sca1^+lineage^− BM cells were treated as above and transplanted at a dose of either 100 cells/recipient or 300 cells/recipient.

CCCCC(C)(C)[C@H](O)/C=C/[C@H]1[C@H](O)CC(=O)[C@@H]1C/C=C\CCCC(=O)O [dmPGE2, 16,16-dimethyl-PGE2]
rescue of the mindbomb mutant [1]: failed to demonstrate any type of rescue
HSC numbers by confocal microscopy (mean±SD) ([2]; 10 μM, bigenic embryos, n=10/treatment, DMSO 23.3±5.0): 38.0±2.2
HSC numbers along the floor of the aorta by confocal microscopy (in words) ([2]; 36 hpf live embryos): significantly increased HSCs
rate of hematopoietic reconstitution of the KM [3]: significantly enhanced
wnt activity (GFP expression) in TOP:dGFP embryos [4]: enhance wnt signaling
OP9, definitive erythroid (dE) and granulocyte/monocyte (GM) colonies ([5]; 10 μM and 20 μM): increased in a dose-dependent manner
toxicity to ES cells ([5]; 100 μM): toxic
number of multipotent GEMM colonies, enhancement ([5]; dmPGE2 10 μM, 20 μM, methylcellulose): 2.9 fold
rescue of indomethacin inhibition of colony formation ([5]; dmPGE2 10 μM, indomethacin 100 μM, methylcellulose and OP9): rescued
wnt activity (GFP) in kidney marrow of Top:dGFP adults [6]: significantly enhanced wnt activity
cmyb expression by qPCR (in words) ([7]; 10 μM): significant alterations
runx1 expression by qPCR, enhancement ([7]; dmPGE2 10 μM): 3 fold
rescue of inhibited AGM HSC formation under wnt repression (dkk activation) ([8]; 36 hpf, runx1/cmyb in situ hybridization): partially rescued; also recorded: can rescue
rescue of HSC formation in embryos over-expressing dnTCF ([8]; preliminary results): not sufficient
BM recovery following 5FU treatment ([9]; administration after 5FU): significantly enhanced BM recovery
peripheral blood (day 14) and bone marrow (day 16) WBC counts after 5-FU injury ([9]; in vivo exposure, IP, 1 mg/kg): enhanced WBC counts
splenic weight and CFU-S12 in recipients of treated KSL cells ([10]; KSL BM cells, 100 or 300 cells per recipient): significantly increased
CFU-S12 Colony Number ([10]; Kit+Sca+Lin−, 100 cells transplanted, EtOH 3.0 (1.4)): 6.2 (1.2)
CFU-S12 Colony Number ([10]; Kit+Sca+Lin−, 300 cells transplanted, EtOH 5.0 (1.1)): 11.0 (1.7)
CFU-S8 colonies ([10]; WBM ex vivo 1 μM/10^6 cells): enhanced
number of CFU-S12, increase ([10]; WBM ex vivo 1 μM/10^6 cells, 6×10^4 cells transplanted): three-fold
CFU-S12 Colony Number ([10]; Whole Marrow, 6000 cells transplanted, 1 μM/10^6 cells ex vivo, day twelve, EtOH 5.8 (2.6)): 15.2 (2.2)
